The experiment has as its system relapsed AML cells. Put plainly: Drug sensitivity assay, 1,536-well, 3-day culture with individual approved drugs at 10 μM, viability by alamarBlue. The format is cell-based, human. The method in brief:
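FACS-sorted viable myeloid blasts from thawed AML samples, 4,000-4,500 cells per 5 μL well, cultured in IMDM with 15% BIT, SCF, FLT3L, IL-3, G-CSF. Drugs added per well; after three days percentage of live cells measured to gauge killing.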
For orientation: The colour change of resazurin is a common sign of viable cells or microbes.

Setting [1] is: number of relapsed AML cases out of 18 tested with >70% cell death, 10 μM, 3-day culture.

Structures can show the parent of a compound that is named as a salt. Where two headings read alike, the source gives them in different places.

For the compound `Cc1ccc(C(=O)N(CCCN)[C@@H](c2nc3cc(Cl)ccc3c(=O)n2Cc2ccccc2)C(C)C)cc1` [ISPINESIB MESYLATE], the “#Cases >70% cell death” value under setting [1] came to 2. With `CCc1ccc(CCOc2ccc(CC3SC(=O)NC3=O)cc2)nc1` (stereo not drawn) [PIOGLITAZONE], the “#Cases >70% cell death” value under setting [1] worked out at 8. On the same count and under the same terms, the result for `O=c1[nH]c(=O)n([C@H]2C[C@H](O)[C@@H](CO)O2)cc1F` [FLOXURIDINE] reads 8; that for `O=c1[nH]c(=O)n([C@H]2C[C@H](O)[C@@H](CO)O2)cc1C(F)(F)F` [TRIFLURIDINE], 6. The same measure, in the same setting: with `CC(=O)OCC(=O)[C@@]12OC(C)(C)O[C@@H]1C[C@H]1[C@@H]3C[C@H](F)C4=CC(=O)C=C[C@]4(C)[C@@]3(F)[C@@H](O)C[C@@]12C` [FLUOCINONIDE] the figure was 1; with `CCN(CC)CCOCCOC(=O)C(CC)(CC)c1ccccc1.O=C(O)CC(O)(CC(=O)O)C(=O)O` [OXELAIDIN CITRATE], 2. The same measure, in the same setting: with `N#C[C@@H]1C[C@@H]2C[C@@H]2N1C(=O)[C@@H](N)C12CC3CC(CC(O)(C3)C1)C2` [SAXAGLIPTIN] the figure was 1; with `Nc1nc(NC2CC2)c2ncn([C@H]3C=C[C@@H](CO)C3)c2n1` [ABACAVIR SULFATE], 1. Take `O=c1cc[nH]c(=O)[nH]1` [URACIL]: under setting [1], the “#Cases >70% cell death” value is listed as 7.

Consider `COc1cccc2c1C(=O)c1c(O)c3c(c(O)c1C2=O)C[C@@](O)(C(=O)CO)C[C@@H]3O[C@H]1C[C@H](N)[C@@H](O)[C@H](C)O1` [EPIRUBICIN], for which the “#Cases >70% cell death” value under setting [1] amounted to 18. `O=C(/C=C/c1ccc(CN(CCO)CCc2c[nH]c3ccccc23)cc1)NO` [LAQ-824]: under setting [1], the “#Cases >70% cell death” value turned out to be 18. For the compound `O=S(=O)([O-])CCSSCCS(=O)(=O)[O-].[Na+].[Na+]` [DIMESNA], under setting [1], the “#Cases >70% cell death” value came to 1. Same read-out and setting: with `C[n+]1cc2c3c(ccc2c2ccc4cc5c(cc4c21)OCO5)OCO3` [SANGUINARIUM CHLORIDE] the figure was 18; with `CC(C)CC(=O)Nc1n[nH]c2c1CN(C(=O)C1CCN(C)CC1)C2(C)C` [PHA-793887], 16.

As for `CN1CCN(c2ccc3nc(-c4c(N)c5c(F)cccc5[nH]c4=O)[nH]c3c2)CC1` [GFKI-258], the “#Cases >70% cell death” value under setting [1] is reported as 16. Still for that read-out and setting: the result for `CC[C@@H](C(=O)O)[C@@H]1O[C@@H]([C@@H](C)[C@H](O)[C@H](C)C(=O)[C@H](CC)[C@H]2O[C@]3(C=C[C@@H](O)[C@]4(CC[C@@](C)([C@H]5CC[C@](O)(CC)[C@H](C)O5)O4)O3)[C@H](C)C[C@@H]2C)[C@@H](C)C[C@@H]1C` [NARASIN] reads 8.

For the compound `CO[C@H]1C[C@H](O[C@H]2[C@H](C)O[C@@H](O[C@@H]3/C(C)=C/C[C@@H]4C[C@@H](C[C@]5(C=C[C@H](C)[C@@H](C6CCCCC6)O5)O4)OC(=O)[C@@H]4C=C(C)[C@@H](O)[C@H]5OC/C(=C\C=C\[C@@H]3C)[C@]54O)C[C@@H]2OC)O[C@@H](C)[C@@H]1O` [DORAMECTIN], under setting [1], the “#Cases >70% cell death” value is recorded as 18. Regarding `CCOC(=O)C1=C(C)NC(C)=C(C(=O)OCC)C1c1ccccc1/C=C/C(=O)OC(C)(C)C` [LACIDIPINE], the “#Cases >70% cell death” value under setting [1] is 2. On the same count and under the same terms, with `CCOc1ccc2nc(S(N)(=O)=O)sc2c1` [ETHOXZOLAMIDE] the figure was 2; with `COCCOC(=O)C1=C(C)NC(C)=C(C(=O)OC/C=C/c2ccccc2)C1c1cccc([N+](=O)[O-])c1` (stereo not drawn) [CILNIDIPINE], 1. Take `CCOC(=O)C1=C[C@]2(CC)CCCN3CCc4c(n1c1ccccc41)[C@@H]32` [VINPOCETINE]: the “#Cases >70% cell death” value under setting [1] was determined as 1. `COc1ccc(S(=O)(=O)N(C(C)=O)c2ccccc2/C=C/c2cc[n+]([O-])cc2)cc1` [HMN-214]: the “#Cases >70% cell death” value under setting [1] came out at 5. With `CCC(=O)O[C@]1(C(=O)SCF)[C@H](C)C[C@H]2[C@@H]3C[C@H](F)C4=CC(=O)C=C[C@]4(C)[C@@]3(F)[C@@H](O)C[C@@]21C` [FLUTICASONE PROPIONATE], the “#Cases >70% cell death” value under setting [1] amounted to 3. On to `Nc1ccn([C@@H]2O[C@H](CO)[C@@H](O)[C@@H]2O)c(=O)n1` [CYTARABINE], for which the “#Cases >70% cell death” value under setting [1] is listed as 16. Take `CC[C@@]1(O)C(=O)OCc2c1cc1n(c2=O)Cc2cc3c(CN(C)C)c(O)ccc3nc2-1` [TOPOTECAN]: the “#Cases >70% cell death” value under setting [1] is 13. Regarding `Cn1nnc2c(C(N)=O)ncn2c1=O` [TEMOZOLAMIDE], under setting [1], the “#Cases >70% cell death” value is recorded as 14. Regarding `CCC(=O)O[C@]1(C(=O)CCl)[C@@H](C)C[C@H]2[C@@H]3C[C@H](F)C4=CC(=O)C=C[C@]4(C)[C@@]3(F)[C@@H](O)C[C@@]21C` [HALOBETASOL PROPIONATE], the “#Cases >70% cell death” value under setting [1] amounted to 3.

Regarding `O=C1NCCc2[nH]c(-c3ccncc3)cc21` [PHA-767491], the “#Cases >70% cell death” value under setting [1] was determined as 18. Take `O=C(Nc1cccnn1)N1CCC(=Cc2cccc(Oc3ccc(C(F)(F)F)cn3)c2)CC1` [PF-4457845]: under setting [1], the “#Cases >70% cell death” value is 1. The same measure, in the same setting: the result for `COc1ccc2c(c1)/C(=C/c1cnc[nH]1)C(=O)N2` [SU-9516] reads 1; that for `O=C(O)[C@]1(Cc2cccc(Nc3nccs3)n2)CC[C@@H](Oc2cccc(Cl)c2F)CC1` [VX-689 (MK5108)], 1. Same read-out and setting: the result for `Nc1nc2nn[nH]c2c(=O)[nH]1` [8-AZAGUANINE] reads 1; that for `CC(C)OC(=O)CCC/C=C\C[C@@H]1[C@@H](CC[C@@H](O)CCc2ccccc2)[C@H](O)C[C@@H]1O` [LATANOPROST], 1.

As to `CCc1nn(CCCN2CCN(c3cccc(Cl)c3)CC2)c(=O)n1CCOc1ccccc1` [NEFAZODONE], under setting [1], the “#Cases >70% cell death” value is 1. Regarding `CCN[C@H]1C[C@H](C)S(=O)(=O)c2sc(S(N)(=O)=O)cc21` [DORZOLAMIDE], under setting [1], the “#Cases >70% cell death” value is 4. Regarding `Nc1ccc2cc3ccc(N)cc3nc2c1` [PROFLAVINE HEMISULFATE], the “#Cases >70% cell death” value under setting [1] is on record as 3. In the case of `C[C@H]1C[C@@H]2[C@H]([C@@H](O)C[C@@]3(C)[C@H]2CC[C@]3(O)C(=O)CO)[C@@]2(C)C=CC(=O)C=C12` [METHYLPREDNISOLONE], the “#Cases >70% cell death” value under setting [1] is 1. Consider `COc1cc(NC(C)CCCN)c2ncccc2c1` (stereo not drawn) [PRIMAQUINE], for which the “#Cases >70% cell death” value under setting [1] is 12. On the same count and under the same terms, the result for `CC(C)(C)NCC(O)c1ccc(O)c(CO)c1` (stereo not drawn) [ALBUTEROL] reads 1. As for `C=CC(N)CCC(=O)O` (stereo not drawn) [VIGABATRIN], under setting [1], the “#Cases >70% cell death” value is given as 13. Still for that read-out and setting: with `Clc1ccc(C(Cn2ccnc2)OCc2ccsc2Cl)c(Cl)c1` (stereo not drawn) [TIOCONAZOLE] the figure was 1; with `CCC(=O)OCC(=O)[C@@]1(OC(=O)CC)[C@@H](C)C[C@H]2[C@@H]3CCC4=CC(=O)C=C[C@]4(C)[C@@]3(Cl)[C@@H](O)C[C@@]21C` [BECLOMETHASONE DIPROPIONATE], 1. As for `N#C[C@@H]1CCCN1C(=O)CNC12CC3CC(CC(O)(C3)C1)C2` [VILDAGLIPTIN], the “#Cases >70% cell death” value under setting [1] is listed as 1. For the compound `C[CH2][Hg][S]c1ccccc1C(=O)[O-].[Na+]` [THIMEROSAL], the “#Cases >70% cell death” value worked out at 18. `Clc1ccc(COC(Cn2ccnc2)c2ccc(Cl)cc2Cl)c(Cl)c1` (stereo not drawn) [MICONAZOLE]: the “#Cases >70% cell death” value under setting [1] was 1. Take `O=C1Cc2cc(CCN3CCN(c4nsc5ccccc45)CC3)c(Cl)cc2N1` [ZIPRASIDONE]: under setting [1], the “#Cases >70% cell death” value came to 3. Same read-out and setting: with IFENPRODIL TARTRATE the figure was 4. Take `O=C1NCC2(CCN(CCc3ccccc3)CC2)O1` [FENSPIRIDE]: the “#Cases >70% cell death” value under setting [1] was 3.

The values above are taken from patent publication US20210405025A1, “IDENTIFYING COMPOUNDS FOR TREATING CANCER AND USE THEREOF” (THE UAB RESEARCH FOUNDATION, priority 2018, published 2021).
